Results on one molecule are retold here after patent US20210335449A1, “Method or System for Identification of a Causative Mutation Causing a Phenotype of Interest in a Test Sample” (Oxford University Innovation Limited, priority 2018, published 2021).

For this experiment, the system named is Marchantia polymorpha wild-type plants. The experiment can be described thus: Chlorsulfuron resistance determination (survival two weeks after exposure to a lethal dose). The following applies: 0.1 ppm dose (lethal dose); survival assessed two weeks following exposure. Format: in vivo. Here is the method: Marchantia polymorpha spores were irradiated with ultraviolet B irradiation and seven independent mutant lines resistant to the herbicide chlorsulfuron were identified. Chlorsulfuron resistance was determined by a Marchantia polymorpha plant that was alive two weeks following exposure to a lethal dose of Chlorsulfuron (0.1 ppm dose, i.e. a dose sufficient to kill 100% of wild-type plants).

The molecule `COc1nc(C)nc(NC(=O)NS(=O)(=O)c2ccccc2Cl)n1` [Chlorsulfuron] returned a wild-type plants killed of 100%.
